Measured values: paper PMC6395926, “Mass Balance and Drug Interaction Potential of Intravenous Eravacycline Administered to Healthy Subjects” (Antimicrobial Agents and Chemotherapy, 2019)
Where two headings read alike, the source gives them in different places.

Assay: Drug interaction study with rifampin (CYP3A4 inducer): plasma PK of i.v. eravacycline and metabolites
Assay type: in vivo, human
Conditions: for AUC0–24 / AUC(0-inf) / clearance / half-life / Vd / Cmax: n = 12; for Vd: read-out: Vss; for Cmax: iv
Experimental: Two single-center, open-label studies were conducted to evaluate the effects of itraconazole (CYP3A4 inhibitor) and rifampin (CYP3A4 inducer) on the pharmacokinetics of i.v. eravacycline in healthy subjects.
(ii) Study design. Each study included a 28-day screening period, a 13-day treatment period (19 days for rifampin), and an end-of-study visit 2 weeks after the last dose of study drug. […] For the itraconazole study, 200 mg oral itraconazole was administered q12h on day 8 and q24h on days 9 and 10. For the rifampin study, 600 mg oral rifampin was administered q24h from day 8 to day 17. All study treatments were administered in the fasting state.
(iii) Study assessments. Blood samples for PK analysis of eravacycline and its metabolites, TP-498, TP-6208, and TP-034, were collected predose and 1, 2, 4, 6, 8, 12, 24, 36, and 48 h after the start of the i.v. infusion on day 1 and day 10 (itraconazole) or day 1 and day 17 (rifampin). Safety assessments included AEs, clinical laboratory safety tests (hematology, serum chemistry, electrolytes, coagulation, urinalysis, and lipid profile), vital signs, physical examinations, and 12-lead ECG.
Concentrations of eravacycline, TP-498, and TP-6208 in human plasma samples were measured by LC-tandem MS after solid-phase extraction over a calibration range of 5.00 to 500 ng/ml. The LLOQ for eravacycline, TP-498, TP-6208, and TP-034 in human plasma was 5.00 ng/ml. Samples with eravacycline initial concentrations above the upper limit of quantification (500 ng/ml) were diluted appropriately with control blank human plasma and reanalyzed. There was no interference seen when human plasma was fortified with eravacycline, TP-498, TP-6208, and either itraconazole or rifampin.
(iv) Pharmacokinetic analysis. PK assessments included Cmax, Tmax, AUC0–24, AUC0–t, t1/2, CL, and Vss. Actual sampling time was used for PK calculations. PK parameters were derived by noncompartmental analysis. Descriptive statistics were calculated for analyte concentrations at each evaluation time point and for all quantitative PK parameters of eravacycline, TP-498, TP-6208, and TP-034 for day 1 and day 10 (day 17 for rifampin). The effect of itraconazole or rifampin on the PK profile of i.v. eravacycline was evaluated by comparing log-transformed PK parameters (Cmax and AUC0–t) associated with the administration of study drug on day 1 and day 10 (itraconazole) or day 1 and day 17 (rifampin) using paired t tests. The ratio and 90% confidence interval (CI) were presented after back transformation to the original scale. Pharmacokinetic variables were calculated using WinNonlin Professional.

[1] = eravacycline plus rifampin (day 17) vs eravacycline alone (day 1), 1 mg/kg i.v.
[2] = human, plasma, intravenous, 1 mg/kg, day 1, eravacycline alone, mean ± SD
[3] = human, plasma, intravenous, day 17, with rifampin, mean ± SD

AUC0–24 (day 1, eravacycline alone, mean ± SD): 4,100 ± 589 h·ng/ml
AUC0–24 (day 17, with rifampin, mean ± SD): 3,090 ± 568 h·ng/ml
decrease of AUC0–24 with coadministration of rifampin (day 17 vs day 1): approximately 25%
decrease of AUC0–∞ with coadministration of rifampin (day 17 vs day 1): ~35%
increase of CL with coadministration of rifampin (day 17 vs day 1): approximately 50%
Ratio of geometric mean AUC0–t, day 17/day 1 [1]: 67.9%
Ratio of geometric mean Cmax, day 17/day 1 [1]: 106.5%
AUC(0-inf) [2]: 5380 ng·h/mL
clearance [2]: 3.2 ± 0.6 mL/min/kg
half-life [2]: 15 ± 2 h
Vd [2]: 2.85 ± 0.29 L/kg
AUC(0-t) (human, plasma, intravenous, 1 mg/kg, day 1, eravacycline alone, read-out: AUC0–t (distribution, as worded in the text)): 4100 ng·h/mL
AUC(0-inf) [3]: 3520 ng·h/mL
clearance [3]: 4.94 ± 1.08 mL/min/kg
half-life [3]: 11 ± 2.3 h
Vd [3]: 2.49 ± 0.51 L/kg
Cmax (human, plasma, day 1, eravacycline 1 mg/kg i.v. alone, mean ± SD): 1170 ng/mL
Cmax (human, plasma, day 17, eravacycline 1 mg/kg i.v. with rifampin 600 mg daily day 8 to 17, mean ± SD): 1260 ng/mL
Structure (SMILES): CN(C)[C@@H]1C(O)=C(C(N)=O)C(=O)[C@@]2(O)C(O)=C3C(=O)c4c(O)c(NC(=O)CN5CCCC5)cc(F)c4C[C@H]3C[C@@H]12 [eravacycline]
